Measured values taken from US12251366B1, “Sulforaphane-cysteine for wound healing in diabetic subjects” (KUWAIT UNIVERSITY, priority 2024, dated 2025).
“Also recorded” adds a separate entry of the source.

Key:
TNF-α = assay: Cytokine ELISA, LPS-stimulated peritoneal macrophages (TNF-α); assay type: cell-based, mouse
Excerpt: This was exemplified in the current study by the ability of SFN-CYS to inhibit lipopolysaccharide (LPS)-induced peritoneal macrophages and bone marrow-derived macrophages to produce tumor necrosis factor-α (TNF-α) and interlukin-6 (IL-6). TNF-α and IL-6 are two of the major inflammatory mediators that contribute to the pathogenesis of low-grade inflammation; a phenomenon which is commonly associated with the diabetic state. […] Pre-treatment with SFN-Cys inhibited the expression of LPS-induced TNF-α and IL-6 protein at a therapeutic dose of 1.5 μM (FIGS. 1A and 1B).
(§1) Thioglycollate-elicited mouse peritoneal macrophages were prepared from C57BL (8-10 weeks old) and cultured in RPMI 1640 with 10% (v/v) FCS Bone marrow-derived macrophages were generated in RPMI medium containing M-CSF (10 ng/mL) according to previously published procedure. For cytokine ELISA assay, cells were seeded at 5×10^5 in 12-well plates, whereas for mRNA expression, the cells were seeded at […]. LPS and used at a dose of 100 ng/mL. Similarly. SFN-Cys was used at a concentration of 1.5 umol/L.
For cytokine ELISA, supernatants from cultured macrophages were collected in response to treatment with SFN and SFN-Cys for 6 h. The total TNF-α and TL-6 were measured by enzyme-linked immunosorbent assay (ELISA) using kits (R&D system, USA) according to the manufacturer's protocols.

IL-6 = assay: Real-time PCR, LPS-induced IL-6 mRNA in peritoneal macrophages; assay type: cell-based, mouse; details: LPS 100 ng/mL, 1.5 umol/L, RT-PCR
Protocol: Additional tests were conducted to determine whether SFN-Cys also suppresses TNF-α and IL-6 expression at the mRNA level.
as §1
Total RNA from cells or frozen sponge implants was extracted using the Trizol reagent (Invitrogen), and the RNA integrity was verified by agarose gel electrophoresis. Approximately 1 μg of RNA was reverse transcribed (Superscript II Reverse Transcriptase Kit, Invitrogen) and amplified using the TaqMan Assay on Demand (Applied Biosystems) in a 25 μL reaction volume containing two unlabeled primers, a 6-carboxyfluorescien-labeled TaqMan MGB probe and the master mix. The amplified sequences were assessed using the ABI 7500 Prism Sequence Detection system machine. The results were expressed as mRNA levels normalized to 18S or GAPDH in each sample.

[1] = test system: bone marrow-derived macrophages; assay: LPS-induced cytokines in bone marrow-derived macrophages; assay type: cell-based, mouse
Protocol: as §1, with “Additional tests were conducted to determine whether SFN-Cys also suppresses TNF-α and IL-6 expression at the mRNA level. […] Thioglycollate-elicited” for “Thioglycollate-elicited”

Nrf2 = Nrf2 activity (NQO1-ARE luciferase) in fibroblasts; assay type: cell-based, rat
Protocol: (§2) To better characterize how SFN-Cys impacts cellular antioxidant levels, the ability of SFN-Cys to regulate the transcription factor nuclear factor erythroid 2-related factor 2 (Nrf2) was assessed, which is a master regulator of the antioxidative stress response that induces the expression of antioxidant proteins such as heme oxygenase (HO) and NAD(P)H dehydrogenase (quinine; NQO1) and key enzymes in the glutathione system. In this context, Nrf2 transcriptional activity was first measured using a vector encoding luciferase driven by the NQO1 promoter. […] Administration of SNF-Cyst at the above indicated concentration (1.5 μM, the lowest effective concentration) ameliorated diabetes-induced suppression of the Nrf2 activity and Nrf2-target genes including HO and NQO1 (FIG. 2A-D).
CF and DF were transfected with the antioxidative stress response element ARE-luciferase and pRenilla vectors using lipofectamine 2000 (Invitogen, USA). In this context, cells were plated and transfected in 12-well plates. Following treatment with SFN-Cys, cells were lysed and firefly and Renilla luciferase activity was determined using Dual luciferase assay (Promega, USA).

NQO1 [2] = assay: mRNA expression of Nrf2 target gene NQO1 in fibroblasts; assay type: cell-based, rat; details: diabetic fibroblasts, 1.5 μM
Protocol: as §2
(§3) Total RNA from cells or frozen sponge implants was extracted using the Trizol reagent (Invitrogen), and the RNA integrity was verified by agarose gel electrophoresis. […] The amplified sequences were assessed using the ABI 7500 Prism Sequence Detection system machine. The results were expressed as mRNA levels normalized to 18S or GAPDH in each sample.

NQO1 [3] = assay: Tissue mRNA expression of NQO1 after SFN-Cys diet; assay type: in vivo; details: heart, kidney, liver and skin; SFN-Cys diet 1.5-2.5 μmol/mouse, 21 days
Protocol: (§4) Testing the pharmacodynamic and toxicodynamic properties of SFN-Cys dictated the mixing SFN-Cys with a powdered diet. The estimated dose delivered by this diet was 1.5-2.5 μmol/mouse (n=4). The SFN-Cys diet was stored at 4° C. and the feeders were refilled daily for the duration of the study (21 days). Corresponding animals received food without the drug.
(§5) For dietary treatment with SFN-Cys, the SFN-Cys was mixed with a powdered diet (7.5 mg of SFN-Cys per kg of food). The estimated dose delivered by this diet was about 1.0-1.5 mg/kg. The diet was stored at 4° C. and the feeders were refilled daily. Control animals received diet alone. Body weights were recorded twice a week and at the termination of the study, blood was drawn in EDTA-containing tubes, plasma was collected by centrifugation and stored at −80° C. until analysis.
as §3

[4] = Toxicity assessment of chronically administered SFN-Cys (body weight, behavior); assay type: in vivo, mouse; details: mice, 21 days
Protocol: as §4
(§6) To strengthen this conclusion, extensive measurements were conducted on plasma levels of key parameters of kidney and liver toxicities in addition to the lipid and carbohydrate profiles.
as §5

[5] = Blood tests on plasma after 21 days of SFN-Cys diet; assay type: in vivo; details: mice, diet 7.5 mg/kg food, mean±SEM
Protocol: as §6, §5
Blood tests were performed on hemolysis free plasma samples obtained from animals receiving 21 days of a normal diet or a diet containing 7.5 mg/kg food of SFN-Cys using commercially available kits.

- Nrf2 transcriptional activity (NQO1 promoter luciferase) (Nrf2; DF and CF-GP, 1.5 μM): ameliorated
- Plasma Alanine aminotransferase [5]: 44.5 ± 17 IU/L
- Plasma Alkaline phosphatase [5]: 27 ± 15 IU/L
- Plasma Aspartate aminotransferase [5]: 172 ± 25 IU/L
- Plasma Creatinine [5]: 8.87 ± 0.91 µmol/L
- Plasma Free fatty acid [5]: 0.41 ± 0.14 mmol/L
- Plasma Glucose [5]: 5.87 ± 0.90 mmol/L
- Plasma Ketone bodies [5]: 0.079 ± 0.01 mmol/L
- Plasma Total bilirubin [5]: 4.23 ± 0.48 µmol/L
- Plasma Total cholesterol [5]: 2.15 ± 0.42 mmol/L
- Plasma Triglyceride [5]: 1.15 ± 0.25 mmol/L
SMILES: C[S+]([O-])CCCCNC(=S)SCC(N)C(=O)O (centres unmarked) [SFN-Cys, Sulforaphane-Cysteine]
- anti-inflammatory activity (overall, SFN-Cys compared with SFN) (TNF-α; LPS-stimulated macrophages, mouse model of type 2 diabetes): exhibited anti-inflammatory and antioxidant activities; also recorded: more potent than SFN
- expression of LPS-induced TNF-α protein (TNF-α; peritoneal macrophages, LPS 100 ng/mL 6 hours, pre-treatment 1.5 μM, ELISA): inhibited
- LPS-induced IL-6 mRNA up-regulation (IL-6): significantly inhibited
- suppression of LPS-induced TNF-α and IL-6 in bone marrow-derived macrophages [1]: analogous results were also seen
- lowest effective concentration (Nrf2; fibroblasts, Nrf2 activity and Nrf2-target genes): 1.5 µM
- mRNA expression of Nrf2 target gene NQO1 (NQO1 [2]): ameliorated
- mRNA expression of NQO1 relative to control (NQO1 [3]): about 3 folds
- body weight ([4]; SFN-Cys diet, in g (unit assumed)): 22.7±3.2
- signs of adverse effect (body weight and behavior) ([4]; chronic SFN-Cys diet): no obvious signs of adverse effect
